Columns and labels:
Format in all cases: biochemical
ST3Gal-II [1] = target: T1, ST3Gal-II (Rattus norvegicus, UniProt Q11205); experiment: Reverse sialylation: transfer of [9-3H]NeuAc from sialylated donor to nucleotide phosphates (WGA-agarose); conditions: nucleotide phosphate 1 mM as acceptor, donor [1]
T1 construct: purchased Calbiochem
T1 sequence (Q11205 1-350): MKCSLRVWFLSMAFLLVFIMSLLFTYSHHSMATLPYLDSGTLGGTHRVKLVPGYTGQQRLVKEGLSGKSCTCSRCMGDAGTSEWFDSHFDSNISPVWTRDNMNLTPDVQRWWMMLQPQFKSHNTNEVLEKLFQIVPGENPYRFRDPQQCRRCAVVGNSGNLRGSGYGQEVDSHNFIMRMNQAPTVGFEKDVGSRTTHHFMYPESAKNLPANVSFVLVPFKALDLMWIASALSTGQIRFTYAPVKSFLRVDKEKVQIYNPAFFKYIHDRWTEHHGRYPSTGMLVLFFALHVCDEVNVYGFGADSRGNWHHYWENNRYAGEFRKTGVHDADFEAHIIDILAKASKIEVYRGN
Method: FIG. 1. Nucleotide phosphates as acceptors of radioactivity from [9-^3H]NeuAcα2,3Galβ,13 (GlcNAcβ1,6)GalNAcα-O—Al (Al=Allyl) [[9-^3H] [1]] in the presence of ST3Gal-II (scheme-I). Reaction mixtures (RM) with the following composition were incubated at 37° C. for 21 hours in 100 mM NaCa Codylate buffer, pH6.0: i) RM containing 150 μM (0.4 μCi) [[9-^3H] [1]] (donor) along with 0.8 mU ST3Gal-II but no 5″-CMP; and, ii) RM containing [[9-^3H] [1]] and 1.0 mM 5′-CMP, along with ST3Gal-II. Products formed were fractionated on a WGA-agarose column. […] The feasibility of the reverse reaction is well established in literature. Schematic symbols: ♦:sialic acid, ●:Gal, □:GalNAc, ▪:GlcNAc.
All enzymatic sialylation reactions were typically carried out in 100 mM NaCa Codylate buffer pH6.0 in the presence of enzyme, synthetic acceptor (at 7.5 mM or as indicated in each experiment) and 0.2 μCi CMP-[9-^3H]NeuAc (NEN-Dupont, 29 mCi/μmol). The concentration of total CMP-NeuAc was adjusted in individual reactions by supplementing with additional cold CMP-NeuAc. Reaction volume was 20 μl. Products formed were separated using four different chromatography procedures (below). In all cases, the radioactive content of isolated products was determined by using 3a70 scintillation cocktail (Research Products International, Mount Prospect, Ill.), and a Beckman LS6500 scintillation counter.
(§1) a) Biogel P2 chromatography: A Biogel P2 column (Fine Mesh; 1.0×116.0 cm) was used with 0.1 M pyridine acetate (pH5.4) as the eluent at room temperature. […] Fractions of 1.0 ml were collected. The bound material was then eluted with 0.5M GlcNAc or 0.2M Gal in the same buffer. […] Calculation of equilibrium constant, Keq: Equilibrium constant was calculated for selected reversible bimolecular reactions that are denoted by:
Cloned and purified rat sialyltransferase α2,3(O)ST (ST3Gal-II) is used in many experiments presented in this manuscript. […] In order to determine if the sialylation reaction is reversible (FIG. 1), [9-^3H]NeuAcα2,3Galβ,13(GlcNAcβ1,6)GalNAcα-O—Al (Al=Allyl) [9-^3H[1]] was prepared using ST3Gal-II in the presence of CMP-[9-^3H]NeuAc and the trisaccharide acceptor Galβ1,3(GlcNAcβ1,6)GalNAcα-O—Al, and the radiolabeled product was isolated using Biogel P2 chromatography. […] Two different reaction mixtures were then prepared with: i) [9-^3H[1]] and ST3Gal-II but without 5″-CMP; and ii) [9-^3H[1]] and 5″-CMP along with ST3Gal-II.

ST3Gal-II [2] = target: T1, ST3Gal-II; experiment: Reverse sialylation by ST3Gal-II in presence of citrate or 5′-nucleotides; conditions: 0.2 mM [3], 7 mM 5′-CMP, 3.0 mM [5], 4 hours
Method: FIG. 5. Effect of 5′-nucleotides on direct sialyltransferase activity (panel a) and reverse sialylation (panel b). a. Varying concentrations of 5′-CDP or 5′-CMP were added to 100 mM acceptor (specified below), 0.15 mM CMP-[9-^3H]NeuAc and either ST3Gal-II (0.2 mU), ST3Gal-III (0.5 mU) or ST6Gal-I (0.2 mU) for 4 h at 37° C. Products were separated using Sep-Pak C18 method. ST3Gal-III activity was measured using acceptor 4-O-MeGalβ1,4GlcNAcβ-O-Bn in the presence of 5′-CDP (●) and 5′-CMP (◯). ST6Gal-I activity was measured using Gal β1,4GlcNAcβ-O-Bn in the presence of 5′-CDP (▴) and 5′-CMP (Δ). ST3Gal-II using D-Fucβ1,3GalNAcα-O-Bn in the presence of 5′-CDP (▪) and 5′-CMP (□). b) Reverse sialylation by ST3Gal-II was measured in reaction mixtures containing 0.2 mM [9-^3H] [3], 7 mM 5′-CMP, ST3Gal-II (2 mU), D-Fucβ1,3GalNAcα-OBn (3.0 mM) and varying doses of either 5′-CDP (▴), 5′-UMP (◯) or 2-deoxy 5′-CMP (●) for 4 hours at 37° C. Reaction product ([9-^3H]NeuAcα2,3DFucβ1,3 GalNAcα-O-Bn) was isolated using Sep-Pak C18 method. In some runs, where was absent, the amount of CMP-NeuAc produced was quantified using the Dowex-1 Formate method in the presence of varying doses of 5′-CDP (▪).
Besides pH other distinctions were also observed between forward and reverse sialylation. In this regard, citrate ions tended to inhibit forward sialylation but not reverse sialylation activity (Table V). For these studies, the effect of citrate on the forward sialylation activity of ST3Gal-I, ST3Gal-II, ST3Gal-III and ST6Gal-I was examined. Reverse sialylation activity of ST3Gal-II was also measured in terms of: i) the formation of CMP-NeuAc from 5′-CMP; and ii) the transfer of NeuAc from this newly synthesized CMP-NeuAc to another O-glycan. From the data (Table V), it is evident that citrate inhibits the direct sialylation activity of all the enzymes mentioned above. However, both the synthesis of CMP-[9-^3H]NeuAc from 5′-CMP as well as the synthesis of [9-^3H]NeuAcα2,3D-Fucβ1,3 GalNAcα-O-Bn using the newly formed CMP-[9-^3H]NeuAc through reverse sialylation of ST3Gal-II was not inhibited by citrate.
The effect of 5′-nucleotides on forward sialylation (FIG. 5a) and reverse sialylation (FIG. 5b) were examined. […] The overall formation of [9-^3H]NeuAcα2,3D-Fucβ1,3 GalNAcα-O-Bn by the two-step reverse sialylation process, however, was inhibited by 5′-CDP and this is consistent with the finding that 5′-CDP inhibits forward sialylation in the second step.

ST3Gal-II [3] = target: T1, ST3Gal-II; experiment: Reverse sialylation equilibrium constant (Keq) and 5′-CMP dose dependence; conditions: acceptor 5′-CMP
Method: FIG. 2. Equilibrium constant. a. Reversible sialyltransferase activity at increasing concentration of 5′-CMP. 0.15 mM of donor [9-^3H]NeuAcα2,3Galβ1,3(4-FGlcNAcβ1,6)GalNAcα-O-Bn [9-^3H[2]] was incubated with varying concentrations of 5′-CMP and 0.15 mU ST3Gal-II under conditions described in FIG. 1 for 2 hours. The consumption of the [9-^3H]NeuAc benzyl glycoside donor was measured by subjecting the incubation mixture to Sep-Pak C18 fractionation, which binds the donor and not CMP-[9-^3H]NeuAc. The reaction proceeded to ½ the maximum extent at 80 μM 5′-CMP. b. Equilibrium constant Keq (=0.35) calculated for data in panel a. c. Varying concentrations of 5′-CMP was sialylated with ST3Gal-II (2.0 mU) using either 0.15 mM (panel c) or 1.5 mM (not shown) sialyl donor [9-^3H]NeuAcα2,3Galβ1,3GalNAcβ1,3Galα-O-Me [9-^3H[3]] for 4 hours. The product CMP-[9-^3H]NeuAc and the unused [9-^3H[3]] were separated and quantitated by Dowex-1-Formate method. d. Equilibrium constant, Keq=98.9. Diamonds denote data from 1.5 mM runs while data from 0.15 mM runs are depicted by squares.
as §1
[formula] Here, [9-^3H]D* denotes the radiolabeled donor and D′ is the donor after removal of sialic acid. Similarly, A and [9-^3H]A* denote the acceptor before and after incorporation of NeuAc. In each run, unreacted [9-^3H]D* and product [9-^3H] A* are measured using radioactivity measurements. The equilibrium constant (Keq=kreverse/kforward, dimensionless units) are then determined using the following equation, where terms in square brackets denote concentrations:
[formula] [D0] and [A0] are initial donor and acceptor concentrations. A plot of [D*]/([D0]−[D*]) versus [A*]/([A0]−[A*]) yields Keq from slope data. Keq<1 implies that the forward reaction is favored and the reaction proceeds to the right side to form [9-^3H]A* efficiently. Liquid Chromatography Coupled with Tandem Mass Spectrometry (LC/MS/MS)
Similar results were observed upon increasing concentrations of 5′-CMP when [9-^3H]NeuAcα2,3Galβ1,3(4-FGlcNAcβ1,6) GalNAcα-O-Bn [9-^3H[2]] was donor (FIG. 2a, b). The concentration of 5′-CMP that mediated half-maximal transfer of [9-^3H]NeuAc was 80 μM. The bimolecular equilibrium constant (Keq) for this reaction was 0.35 (dimensionless units, Table I). Indeed, the Keq varied depending on the donor and it was 98.9 when the donor was based on the globo glycolipid, [9-^3H]NeuAcα2,3Galβ1,3GalNAcβ1,3 Gala-O-Me [[9-^3H] [3]] (FIG. 2c, d). Upon comparing and [3], it is apparent that reverse sialylation proceeds more effectively in the case of [2]. To further confirm the above estimates of Keq for core-2 based structures, we also calculated this parameter for our previously published data where [9-^3H]CMP-NeuAc was donor and mucin core-2 tetrasaccharide Galβ1,4GlcNAcβ1,6(Galβ1,3)GalNAcα-O-Bn was acceptor. In this case, Keq measured with respect to the rate of mucin core-2 sialylation was 5.55 (data not shown), which translates to a reverse sialylation Keq of 0.18.

Compound: Nc1ccn([C@H]2C[C@H](O)[C@@H](COP(=O)(O)O)O2)c(=O)n1 [2′ deoxy 5′-CMP]
- Incorporation of [9-3H]NeuAc expressed as percent of the CPM incorporated into 5′-CMP (ST3Gal-II [1]): 26.3%
- Effect on overall formation of [9-3H]NeuAcα2,3D-Fucβ1,3GalNAcα-O-Bn by two-step reverse sialylation (ST3Gal-II [2]): did not alter the extent of product formation

Compound: O=c1ccn([C@@H]2O[C@H](COP(=O)(O)O)[C@@H](O)[C@H]2O)c(=O)[nH]1 [5′-UMP]
- Incorporation of [9-3H]NeuAc expressed as percent of the CPM incorporated into 5′-CMP (ST3Gal-II [1]): 55.9%
- Effect on overall formation of [9-3H]NeuAcα2,3D-Fucβ1,3GalNAcα-O-Bn by two-step reverse sialylation (ST3Gal-II [2]): did not alter the extent of product formation

Compound: [9-^3H]NeuAcα2,3Gal(1,3(Gal(1,4GlcNAc(1,6)GalNAc(-O-Bn
- Keq (dimensionless units), reverse sialylation equilibrium constant (ST3Gal-II [3]; translated from Keq 5.55 of mucin core-2 sialylation, previously published data): 0.18

Compound: [9-^3H]NeuAcα2,3Galβ1,3GalNAcβ1,3Galα-O-Me [[3]]
- Keq (dimensionless units), reverse sialylation equilibrium constant (ST3Gal-II [3]; sialylated donor): 98.9

Source: patent publication US8278072B1, “Method for synthesis of sialylated products using reversible sialylation” (Health Research, Inc., priority 2007, dated 2012)
